Assay results taken from patent US11840551B2, “Compositions and methods of modulating the immune response by activating alpha protein kinase 1” (Shanghai Yao Yuan Biotechnology Co., Ltd., priority 2017, dated 2023).

How the values were obtained:
ALPK1 [1] = biological target: T1, ALPK1 (Homo sapiens, UniProt Q96QP1); assay: Cell-free kinase assay of ALPK1 autophosphorylation (Western, anti-phospho-threonine); assay type: biochemical; conditions: 2 nM ALPK1 with ATP, 25° C., 1 h; H1b-ADP 10, 1, 0.2 nM; HBP and HMP-1bP 1, 10, 100 nM
Description: ALPK1 activation results in its autophosphorylation. Accordingly, we next asked whether the binding of H1b-ADP to ALPK1 was sufficient to induce ALPK1 autophosphorylation. Phosphorylation assays were performed according to standard protocols. Briefly, ALPK1 was incubated (2 nM, 25° C., 1 h) in assay buffer (20 μl, 25 mM HEPES pH 7.5, 50 mM KCl, 0.1 mM EDTA, 0.1 mM EGTA, 2 mM DTT, 1.5 mM CaCl2, 10 mM MgCl2) with ATP and chemically synthesized HBP, HMP-1bP, or H1b-ADP followed by denaturing gel electrophoresis and Western analysis with an anti-phospho-threonine antibody (CST) to detect autophosphorylation of ALPK1. […] The range of concentrations of HBP and HMP-1bP used in this assay (1 nM, 10 nM, 100 nM) was 10-fold higher than that used for H1b-ADP.

ALPK1 [2] = biological target: T1, ALPK1; assay: In vitro kinase assay of ALPK1-dependent TIFA phosphorylation; assay type: biochemical
Description: We performed an in vitro kinase assay with H1b-ADP and H1b-ADP-6L along with ALPK1 protein (2 nM), and TIFA protein (1.6 uM) in kinase buffer containing 50 uM ATP. TIFA phosphorylation was analyzed by denaturing gel electrophoresis followed by western blotting using an anti-phosphothreonine antibody. H1b-ADP or H1b-ADP-6L was added at 2 nM, 0.4 nM, 80 pM, 16 pM, and 3 pM.
To test this, we performed an in vitro kinase reaction for ALPK1-dependent TIFA phosphorylation in the presence of either HBP or HIdA purified from E. coli containing inactivated HIdE, or in the presence of HBP and HIdA purified from the same HIdE wild-type E. coli used in the previous experiments. Phosphorylated TIFA (three concentrations, 1%, 0.2% and […]) was detected as described above by denaturing gel electrophoresis followed by Western analysis.

CT26 cells = assay: CT26 tumor xenograft model, tumor growth (tumor volume); assay type: in vivo, BALB/c mice
Description: We used a CT26 tumor xenograft model to test the anti-cancer activity of H1b-ADP. Tumor cells (2×10^5 per 100 uL CT26 cells) were inoculated subcutaneously into the right flank of BALB/c mice. At day 6, mice whose tumors had reached 3-5 mm in diameter were randomized and grouped into three groups (n=8 each group), control, HMP-1bP (580 ug), and H1b-ADP (1.2 ug). Injections were performed using a total volume of 20 uL at days 6, 8, 10, 12, and 14 post inoculation. Tumor volumes were calculated every 2 days from caliper measurements of tumor dimension using the formula (L×W^2)/2, where L is the longer measurement.
To test whether H1b-ADP could augment an anti-tumor response by a checkpoint inhibitor, we tested the effects of co-administration with an anti-PD1 antibody. Tumor cells (2×10^5 per 100 μL CT26 cells) were inoculated subcutaneously into the left and right flanks of BALB/c mice. At day 7, mice whose tumors had reached 5 mm in diameter were randomized and grouped (n=8 each group) into the following four groups: anti-PD1 antibody; rat IgG; H1b-ADP+rat IgG; H1b-ADP+anti-PD1 antibody. We utilized RMP1-14 as the anti-PD1 antibody (10 mg/kg) and a rat IgG 2a (2A3) as the control IgG. Each of the anti-PD-1 antibody and the control IgG was administered intraperitoneally in a 200 μL volume on days 6, 10, 12, and 17 post-inoculation. H1b-ADP (6.2 μg) was intratumorally injected in a 20 μL volume at day 6, 8, 10, 12, and 15. Tumor volumes were calculated every 2 days from caliper measurements of tumor dimensions using the formula (L×W^2)/2, where L is the longer measurement. The results are shown in FIG. 13A for injected tumors and FIG. 13B for distant tumors. […]
The experiment was carried out as combo experiments of anti-PD1 except for the following variations. At day 6, mice whose tumors had reached 5 mm in diameter were randomized and grouped into the following four groups: anti-CTLA-4 antibody; rat IgG; H1b-ADP+rat IgG; H1b-ADP+anti-CTLA-4 antibody. We utilized 9D9 (BioxCell) as the anti-CTLA-4 antibody and a rat IgG 2b isotype (MPC-11 clone, BE0086, BioXCell) as the control IgG. Each of the anti-CTLA-4 antibody (25 μg) and the control IgG (25 μg) was administered intraperitoneally in a 200 μL volume on days 6 and 9 post-inoculation. H1b-ADP (6.2 μg) was administered intratumorally in a 20 μL volume on days 6, 7, 9, 11 post-inoculation.
The experiment was carried out as combo experiments of anti-PD1 except for the following variations. At day 6, mice whose tumors had reached 5 mm in diameter were randomized and grouped into the following four groups: c-di-AM(PS)2; PBS; H1b-ADP; H1b-ADP+c-di-AM(PS)2. We utilized c-di-AM(PS)2 as the STING agonist. […]

T1 sequence (Q96QP1 whole entry): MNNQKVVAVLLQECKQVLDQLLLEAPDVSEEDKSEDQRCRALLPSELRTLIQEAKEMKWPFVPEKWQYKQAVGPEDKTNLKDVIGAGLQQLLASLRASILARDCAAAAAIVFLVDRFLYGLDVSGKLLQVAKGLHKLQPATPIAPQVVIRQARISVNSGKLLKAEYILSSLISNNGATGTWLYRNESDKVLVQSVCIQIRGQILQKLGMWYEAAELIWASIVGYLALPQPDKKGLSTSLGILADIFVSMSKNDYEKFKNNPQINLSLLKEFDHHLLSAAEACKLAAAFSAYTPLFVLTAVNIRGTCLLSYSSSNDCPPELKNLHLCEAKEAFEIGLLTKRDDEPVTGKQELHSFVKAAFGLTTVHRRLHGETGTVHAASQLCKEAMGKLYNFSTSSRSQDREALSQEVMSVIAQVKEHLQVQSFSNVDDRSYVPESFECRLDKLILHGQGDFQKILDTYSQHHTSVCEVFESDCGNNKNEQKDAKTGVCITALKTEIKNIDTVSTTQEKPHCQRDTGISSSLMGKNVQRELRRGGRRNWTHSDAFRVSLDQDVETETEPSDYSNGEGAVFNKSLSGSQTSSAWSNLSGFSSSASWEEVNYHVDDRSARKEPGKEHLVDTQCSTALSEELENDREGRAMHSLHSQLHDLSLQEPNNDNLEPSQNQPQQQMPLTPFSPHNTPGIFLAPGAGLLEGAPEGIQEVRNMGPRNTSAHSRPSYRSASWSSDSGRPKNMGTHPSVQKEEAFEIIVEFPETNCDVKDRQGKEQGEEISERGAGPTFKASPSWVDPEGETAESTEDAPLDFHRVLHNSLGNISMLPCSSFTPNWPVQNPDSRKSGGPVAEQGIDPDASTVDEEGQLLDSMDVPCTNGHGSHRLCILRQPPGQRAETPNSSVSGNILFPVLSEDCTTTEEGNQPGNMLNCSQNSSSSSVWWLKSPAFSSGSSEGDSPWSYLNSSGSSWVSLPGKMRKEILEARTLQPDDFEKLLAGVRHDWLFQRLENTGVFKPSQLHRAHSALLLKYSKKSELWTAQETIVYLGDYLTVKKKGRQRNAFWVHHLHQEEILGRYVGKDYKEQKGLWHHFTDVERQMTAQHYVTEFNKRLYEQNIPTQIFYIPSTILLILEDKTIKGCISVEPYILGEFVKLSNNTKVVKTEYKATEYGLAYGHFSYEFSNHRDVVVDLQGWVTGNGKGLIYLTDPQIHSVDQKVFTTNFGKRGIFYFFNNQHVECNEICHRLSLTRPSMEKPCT

| Structure (SMILES) | autophosphorylation of ALPK1 (ALPK1 [1]) | phosphorylation of the ALPK1 substrate TIFA (ALPK1 [2]; FIG. 7, chemically-synthesized compounds) | tumor growth (CT26 cells; intratumoral, days 6, 8, 10, 12, 14, HMP-1bP 580 ug, H1b-ADP 1.2 ug) | TIFA phosphorylation (ALPK1 [2]; ALPK1 2 nM, TIFA 1.6 uM, 50 uM ATP, compound 2 nM, 0.4 nM, 80 pM, 16 pM, 3 pM) | tumor growth (CT26 cells; Example 7, H1b-ADP 6.2 μg intratumoral, anti-PD1 antibody 10 mg/kg intraperitoneal, injected and distant tumors) |
| --- | --- | --- | --- | --- | --- |
| O=P(O)(O)O[C@@H]1O[C@H]([C@H](O)CO)[C@@H](O)[C@H](O)[C@@H]1O [HMP-1bP, D-glycero-β-D-manno-heptose-1-phosphate] | not HBP or HMP-1bP induces ATP-dependent autophosphorylation | TIFA is phosphorylated only in the presence of H1b-ADP | but not HMP-1bP, reduced tumor growth |  |  |
| Nc1ncnc2c1ncn2[C@@H]1O[C@H](COP(=O)(O)OP(=O)(O)O[C@@H]2O[C@H]([C@H](O)CO)[C@@H](O)[C@H](O)[C@@H]2O)[C@@H](O)[C@H]1O [Compound H1b-ADP, D-glycero-D-manno-heptose-1β-ADP] | phosphorylation of ALPK1 was detected only in the presence of H1b-ADP |  |  | phosphorylation of the ALPK1 substrate TIFA | markedly suppressed tumor growth |
